Source: patent US6914045B2, “Glycopeptide antibiotics” (Wyeth Holdings Corporation, priority 2001, dated 2005)
In brackets after ≈: the same amount, converted by molar mass. Where two headings read alike, the source gives them in different places.

Key:
Experiment in all cases: in vitro antibacterial evaluation, MIC by broth dilution
Assay type in all cases: cell-based
Streptococcus sp. = conditions: broth dilution, 18 hours at 35° C.
How it was run: (§1)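 Read-out: the lowest concentration at which the test strain fails to grow. Serial dilutions (64-0.06 μg/mL) in Muller-Hinton II […], 5×10^5 CFU/mL inoculum, NCCLS M7-A2 procedure.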

Enterococcus sp. = conditions: broth dilution, 18 hours at 35° C.
How it was run: as §1

Staphylococcus sp. = conditions: broth dilution, 18 hours at 35° C.
How it was run: as §1

Escherichia coli = conditions: Escherichia coli, broth dilution, 18 hours at 35° C.
How it was run: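 Broth dilution MIC per NCCLS M7-A2 in Mueller-Hinton II medium, inoculum 5×10^5 CFU/mL, antibiotic range 64-0.06 μg/mL. MIC taken as lowest concentration inhibiting growth.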

Q: Which results are given for `Cc1cccc(Oc2ccc(-c3nc4cc(C[C@@H]5NC(=O)[C@H](C(C)c6ccccc6)NC(=O)CNC(=O)[C@H](CO)NC(=O)[C@H](C(O)C6CNC(=N)N6)NC(=O)[C@H](C(O)C6CNC(=N)N6)NC5=O)ccc4o3)cc2)c1` (stereo partly drawn) [Example 41, Cyclo[3-[2-[4-(3-methylphenoxy)phenyl]benzoxazol-5-yl]alanyl-3-(2-iminoimidazolidin-4-yl)-seryl-3-(2-iminoimidazolidin-4-yl)serylserylglycyl-β-methylphenylalanyl]]?
A: MIC Streptococcus pneumoniae (ATCC 6301) (Streptococcus sp.; strain ATCC 6301): 64 µg/mL (≈ 63 µM); MIC Streptococcus pneumoniae (GC 1894) (Streptococcus sp.; strain GC 1894): 64 µg/mL (≈ 63 µM); MIC Streptococcus pyogenes (GC 4563) (Streptococcus sp.; strain GC 4563): 32 µg/mL (≈ 31.5 µM); MIC Streptococcus agalactiae (GC 4564) (Streptococcus sp.; strain GC 4564): 64 µg/mL (≈ 63 µM); MIC Streptococcus pneumoniae (GC 4565) (Streptococcus sp.; strain GC 4565): >64 µg/mL; MIC (Streptococcus sp.; strain ATCC 6301, read-out: MIC Streptococcus pneumoniae (ATCC 6301)): 64 µg/mL (≈ 63 µM); MIC (Streptococcus sp.; strain GC 1894, read-out: MIC Streptococcus pneumoniae (GC 1894)): 64 µg/mL (≈ 63 µM); MIC (Streptococcus sp.; strain GC 4563, read-out: MIC Streptococcus pyogenes (GC 4563)): 32 µg/mL (≈ 31.5 µM); MIC (Streptococcus sp.; strain GC 4564, read-out: MIC Streptococcus agalactiae (GC 4564)): 64 µg/mL (≈ 63 µM); MIC (Streptococcus sp.; strain GC 4565, read-out: MIC Streptococcus pneumoniae (GC 4565)): > 64 µg/mL; MIC Enterococcus faecalis (ATCC 29212) (Enterococcus sp.; strain ATCC 29212): 64 µg/mL (≈ 63 µM); MIC Enterococcus faecalis (GC 2242) (Enterococcus sp.; strain GC 2242): 64 µg/mL (≈ 63 µM); MIC Enterococcus faecium (GC 2243) (Enterococcus sp.; strain GC 2243): 64 µg/mL (≈ 63 µM); MIC Enterococcus faecalis (GC 2691) (Enterococcus sp.; strain GC 2691): 64 µg/mL (≈ 63 µM); MIC Enterococcus faecalis (GC 3059) (Enterococcus sp.; strain GC 3059): >64 µg/mL; MIC Enterococcus faecalis (GC 4552) (Enterococcus sp.; strain GC 4552): 64 µg/mL (≈ 63 µM); MIC Enterococcus faecalis (GC 4553) (Enterococcus sp.; strain GC 4553): 64 µg/mL (≈ 63 µM); MIC Enterococcus faecalis (GC 4554) (Enterococcus sp.; strain GC 4554): 64 µg/mL (≈ 63 µM); MIC Enterococcus faecium (GC 4556) (Enterococcus sp.; strain GC 4556): 32 µg/mL (≈ 31.5 µM); MIC Enterococcus faecium (GC 4557) (Enterococcus sp.; strain GC 4557): 64 µg/mL (≈ 63 µM); MIC Enterococcus avium (GC 4558) (Enterococcus sp.; strain GC 4558): 64 µg/mL (≈ 63 µM); MIC Enterococcus faecalis (GC 6189) (Enterococcus sp.; strain GC 6189): >64 µg/mL; MIC (Enterococcus sp.; strain ATCC 29212, read-out: MIC Enterococcus faecalis (ATCC 29212)): 64 µg/mL (≈ 63 µM); MIC (Enterococcus sp.; strain GC 2242, read-out: MIC Enterococcus faecalis (GC 2242)): 64 µg/mL (≈ 63 µM); MIC (Enterococcus sp.; strain GC 2243, read-out: MIC Enterococcus faecium (GC 2243)): 64 µg/mL (≈ 63 µM); MIC (Enterococcus sp.; strain GC 2691, read-out: MIC Enterococcus faecalis (GC 2691)): 64 µg/mL (≈ 63 µM); MIC (Enterococcus sp.; strain GC 3059, read-out: MIC Enterococcus faecalis (GC 3059)): > 64 µg/mL; MIC (Enterococcus sp.; strain GC 4552, read-out: MIC Enterococcus faecalis (GC 4552)): 64 µg/mL (≈ 63 µM); MIC (Enterococcus sp.; strain GC 4553, read-out: MIC Enterococcus faecalis (GC 4553)): 64 µg/mL (≈ 63 µM); MIC (Enterococcus sp.; strain GC 4554, read-out: MIC Enterococcus faecalis (GC 4554)): 64 µg/mL (≈ 63 µM); MIC (Enterococcus sp.; strain GC 4556, read-out: MIC Enterococcus faecium (GC 4556)): 32 µg/mL (≈ 31.5 µM); MIC (Enterococcus sp.; strain GC 4557, read-out: MIC Enterococcus faecium (GC 4557)): 64 µg/mL (≈ 63 µM); MIC (Enterococcus sp.; strain GC 4558, read-out: MIC Enterococcus avium (GC 4558)): 64 µg/mL (≈ 63 µM); MIC (Enterococcus sp.; strain GC 6189, read-out: MIC Enterococcus faecalis (GC 6189)): > 64 µg/mL; MIC (Staphylococcus sp.; Staphylococcus, strain GC 4543, read-out: MIC Staphylococcus aureus-SMITH (GC 4543)): > 64 µg/mL; MIC (Staphylococcus sp.; Staphylococcus, strain GC 4547, read-out: MIC Coagulase Negative Staphylococcus (GC 4547)): 64 µg/mL (≈ 63 µM); MIC (Staphylococcus sp.; Staphylococcus, strain GC 4548, read-out: MIC Coagulase Negative Staphylococcus (GC 4548)): > 64 µg/mL; MIC (Staphylococcus sp.; Staphylococcus, strain GC 4549, read-out: MIC Coagulase Negative Staphylococcus (GC 4549)): 32 µg/mL (≈ 31.5 µM); MIC (Staphylococcus sp.; Staphylococcus, strain GC 4551, read-out: MIC Coagulase Negative Staphylococcus (GC 4551)): 64 µg/mL (≈ 63 µM); MIC (Staphylococcus sp.; strain ATCC 29213, read-out: MIC Staphylococcus aureus (ATCC 29213)): > 64 µg/mL; MIC (Staphylococcus sp.; strain GC 1131, read-out: MIC Staphylococcus aureus (GC 1131)): > 64 µg/mL; MIC (Staphylococcus sp.; strain GC 3051, read-out: MIC Staphylococcus aureus (GC 3051)): > 64 µg/mL; MIC (Staphylococcus sp.; strain GC 3053, read-out: MIC Staphylococcus aureus (GC 3053)): > 64 µg/mL; MIC (Staphylococcus sp.; strain GC 4541, read-out: MIC Staphylococcus aureus (GC 4541)): > 64 µg/mL; MIC (Staphylococcus sp.; strain GC 4542, read-out: MIC Staphylococcus aureus (GC 4542)): > 64 µg/mL; MIC (Staphylococcus sp.; strain GC 4544, read-out: MIC Staphylococcus aureus (GC 4544)): > 64 µg/mL; MIC (Staphylococcus sp.; strain GC 4545, read-out: MIC Staphylococcus aureus (GC 4545)): > 64 µg/mL; MIC Staphylococcus aureus (ATCC 29213) (Staphylococcus sp.; strain ATCC 29213): >64 µg/mL; MIC Staphylococcus aureus (GC 3051) (Staphylococcus sp.; strain GC 3051): >64 µg/mL; MIC Staphylococcus aureus (GC 3053) (Staphylococcus sp.; strain GC 3053): >64 µg/mL; MIC Staphylococcus aureus (GC 4541) (Staphylococcus sp.; strain GC 4541): >64 µg/mL; MIC Staphylococcus aureus (GC 4542) (Staphylococcus sp.; strain GC 4542): >64 µg/mL; MIC Staphylococcus aureus (GC 4544) (Staphylococcus sp.; strain GC 4544): >64 µg/mL; MIC Staphylococcus aureus (GC 4545) (Staphylococcus sp.; strain GC 4545): >64 µg/mL; MIC (Staphylococcus sp.; strain GC 4546, read-out: MIC Staphylococcus haemolyticus (GC 4546)): 64 µg/mL (≈ 63 µM); MIC (Escherichia coli; ATCC25922, strain ATCC 25922, read-out: MIC Escherichia coli (ATCC 25922)): > 64 µg/mL; MIC (Escherichia coli; strain GC 4559, read-out: MIC Escherichia coli (GC 4559)): > 64 µg/mL; MIC (Escherichia coli; strain GC 4560, read-out: MIC Escherichia coli (GC 4560)): > 64 µg/mL
